The values below come from patent US10577356B2, “Beta-arrestin-biased cannabinoid CB1 receptor agonists and methods for making and using them” (priority 2014, dated 2020).

Assay [1] addresses T1, CB1 (Homo sapiens, UniProt P21554). The experiment in a line: GTPγS stimulation levels in hCB1/HEK cells (FIG. 9). Conditions: compound applied alone. In kind it is biochemical. The arrangement: expressed in transfected cells; host or cells: HEK cells (hCB1/HEK). How it is done: (§1) Compounds were tested using a GTPγS assay as previously described (Shore D M, et al. J Biol Chem. 2014; 289(9):5828-45; incorporated herein by reference in its entirety). Compounds were tested using an ERK assay as previously described (Kapur A, et al. J Biol Chem. 2009; 284:29817-29827; incorporated herein by reference in its entirety).
Target sequence in this assay (P21554 whole entry): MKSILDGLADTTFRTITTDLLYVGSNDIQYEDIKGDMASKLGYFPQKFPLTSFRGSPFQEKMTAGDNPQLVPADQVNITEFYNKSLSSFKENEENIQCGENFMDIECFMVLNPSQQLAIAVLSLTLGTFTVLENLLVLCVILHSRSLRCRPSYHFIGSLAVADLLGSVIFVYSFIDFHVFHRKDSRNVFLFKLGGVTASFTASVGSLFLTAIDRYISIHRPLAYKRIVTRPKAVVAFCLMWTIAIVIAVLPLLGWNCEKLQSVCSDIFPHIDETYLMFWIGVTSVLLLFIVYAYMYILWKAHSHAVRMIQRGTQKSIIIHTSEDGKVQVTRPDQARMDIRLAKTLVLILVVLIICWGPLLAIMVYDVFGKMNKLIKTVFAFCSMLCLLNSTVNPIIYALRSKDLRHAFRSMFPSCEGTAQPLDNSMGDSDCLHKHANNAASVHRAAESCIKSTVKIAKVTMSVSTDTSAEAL

Assay [2] addresses T1, CB1. Kind of assay: Antagonism of CP55,940's [35S]GTPγS signaling / allosteric modulation of CB1 (FIG. 3). The conditions noted are these: compared with ORG27569. The format is biochemical. On the procedure: as §1
A general note: GTPγS resists hydrolysis and so accumulates on activated G proteins.
Target sequence in this assay (P21554 whole entry, species assumed): as the sequence (P21554 whole entry) above

In assay [3] the target is T2, CB1 (Mus musculus, UniProt P47746).
T2 construct: from tissue
T2 sequence (P47746 whole entry): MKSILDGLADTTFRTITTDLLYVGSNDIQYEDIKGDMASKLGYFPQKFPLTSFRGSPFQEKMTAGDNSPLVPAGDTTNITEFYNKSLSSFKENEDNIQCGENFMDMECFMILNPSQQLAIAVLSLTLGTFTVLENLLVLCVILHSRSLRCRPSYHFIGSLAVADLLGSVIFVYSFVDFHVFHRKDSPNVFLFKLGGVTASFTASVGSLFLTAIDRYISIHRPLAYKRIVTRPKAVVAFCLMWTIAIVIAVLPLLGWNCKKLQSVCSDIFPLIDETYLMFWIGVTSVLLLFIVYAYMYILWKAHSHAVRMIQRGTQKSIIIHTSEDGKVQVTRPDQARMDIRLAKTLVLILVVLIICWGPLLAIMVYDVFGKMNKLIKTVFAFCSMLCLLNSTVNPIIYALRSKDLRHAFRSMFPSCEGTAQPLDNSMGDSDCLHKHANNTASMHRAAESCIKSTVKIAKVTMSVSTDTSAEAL
Kind of assay: Basal G protein signaling, GTP-gamma-S binding, compound applied alone, membranes (FIG. 4-7). The format is biochemical. How it is done:
as §1

For assay [4], the target named is T1, CB1. Kind of assay: ERK assay, pERK production in cells (FIG. 8, FIG. 10). The conditions noted are these: compound applied alone. The format is cell-based. How it is done: as §1
Target sequence in this assay (P21554 whole entry, species assumed): as the sequence (P21554 whole entry) above
For assay [5], the target named is T1, CB1. The experiment in a line: Effect on CP55,940 binding (Bmax) at CB1 (FIG. 3). Conditions: compared with ORG27569.
Target sequence in this assay (P21554 whole entry, species assumed): as the sequence (P21554 whole entry) above

Entries after “also recorded” stand apart in the source; their conditions may differ.

In the case of `CCCCCCC(C)(C)c1ccc([C@@H]2C[C@H](O)CC[C@H]2CCCO)c(O)c1` [CP55940, reference compound], the “GTP-gamma-S binding at the human CB1 receptor” value on CB1 [1] was “causes a rise in GTP-gamma-S binding”.
With `CCc1c(C(=O)NCCc2ccc(N3CCCCC3)cc2C2CC2)[nH]c2ccc(Cl)cc12` [Compound 3, 5-Chloro-N-{2-[2-cyclopropyl-4-(piperidin-1-yl)phenyl]ethyl}-3-ethyl-1H-indole-2-carboxamide], the “allosteric modulation of CB1 (effects on binding and G protein-mediated signaling)” value (“allosteric modulation of CB1” for short) at CB1 [2] was “does not act as an allosteric modulator of CB1”. In addition, the “effect on basal G protein signaling (GTP-gamma-S binding)” value (“effect on basal G protein signaling” for short) on CB1 [3] is recorded as “no effect on GTP-gamma-S binding”. In addition, the “ERK signaling / pERK production” value at CB1 [4] was “robust effect, particularly at early time points, compared to CP (CP55,940); also recorded: does generate an ERK signal”. Also, the “effect on CP55,940's Bmax” value at CB1 [5] is listed as “does not improve CP55,940's Bmax (and may actually reduce it)”. For the same compound, on CB1 [1], the “GTP-gamma-S binding at the human CB1 receptor” value is “no effect on GTP-gamma-S binding; also recorded: did not have any significant effect on [^35S]GTPλS signaling when applied alone”.
Consider `CCc1c(C(=O)NC[C@H](O)c2ccc(N3CCCCC3)cc2)[nH]c2ccc(Cl)cc12` [Compound 2, 5-Chloro-3-ethyl-N-[(2R)-2-hydroxy-2-[4-(piperidin-1-yl)phenyl]ethyl]-1H-indole-2-carboxamide], for which, at CB1 [2], the “allosteric modulation of CB1” value is given as “more potent negative allosteric modulator than ORG27569”; the “antagonism of CP55,940's [35S]GTPλS signaling” value (“antagonism of CP55,940's” for short) is “antagonizes CP55,940's [^35S]GTPλS signaling as well as ORG27569”. The “effect on basal G protein signaling” value on CB1 [3] was “partial agonist in membranes; also recorded: does not act as an inverse agonist of [^35S]GTPλS signaling; also recorded: may act as a weak agonist of G protein-mediated signaling”. In addition, the “effect on CP55,940's Bmax” value on CB1 [5] was “improves CP55,940's Bmax better than as ORG27569”.
Take `CCc1c(C(=O)NC[C@@H](O)c2ccc(N3CCCCC3)cc2)[nH]c2ccc(Cl)cc12` [Compound 1, 5-Chloro-3-ethyl-N-[(2S)-2-hydroxy-2-[4-(piperidin-1-yl)phenyl]ethyl]-1H-indole-2-carboxamide]: at CB1 [2], the “allosteric modulation of CB1” value was “less potent and efficacious negative allosteric modulator of CB1 than ORG27569”; the “antagonism of CP55,940's” value is “does not antagonize CP55,940's [^35S]GTPλS signaling as well as ORG27569”. Also, the “effect on basal G protein signaling” value on CB1 [3] is “no effect on GTP-gamma-S binding; also recorded: does not act as an inverse agonist of [^35S]GTPλS signaling”. The “effect on CP55,940's Bmax” value at CB1 [5] is “does not improve CP55,940's Bmax as well as ORG27569”.
Consider `CCc1c(C(=O)NCCc2ccc(N3CCCCC3)cc2)[nH]c2ccc(Cl)cc12` [ORG27569, reference compound], for which the “GTP-gamma-S binding at the human CB1 receptor” value at CB1 [1] is given as “causes a decrease (including below basal)”.
As for `O=C(NCCc1ccc(N2CCCCC2)cc1)c1[nH]c2ccc(Cl)cc2c1Cc1ccccc1` [Compound 4, 3-Benzyl-5-chloro-N-{2-[4-(piperidin-1-yl)phenyl]ethyl}-1H-indole-2-carboxamide], the “antagonism of CP55,940's” value on CB1 [2] is “antagonized CP55,940's [^35S]GTPλS signaling as well as ORG27569”. Also, on CB1 [3], the “effect on basal G protein signaling” value was “no effect on GTP-gamma-S binding; also recorded: does not act as an inverse agonist of [^35S]GTPλS signaling”. Moreover, the “ERK signaling / pERK production” value at CB1 [4] is reported as “may act as a weak inverse agonist of ERK signaling”. Moreover, the “effect on CP55,940's Bmax” value at CB1 [5] was “did not affect CP55,940's Bmax”.
